Results taken from patent US20240083892A1 (BISICHEM CO., LTD., priority 2021, published 2024).

Tests used:
RIPK1 [1] = molecular target: T1, RIPK1 (Homo sapiens, UniProt Q13546); assay: Cell-based necroptosis assay for RIPK1 activity (cell viability by CCK-8); conditions: HT-29 cells; Z-VAD-FMK 20 μM, human TNFα 10 ng/ml, SM-164 100 nM; 24 h; read-out: Cell-base RIPK1 activity: Necroptosis
T1 construct: endogenous in cells; host or cells: HT-29 (KCLB 30038)
T1 sequence (Q13546 1-671): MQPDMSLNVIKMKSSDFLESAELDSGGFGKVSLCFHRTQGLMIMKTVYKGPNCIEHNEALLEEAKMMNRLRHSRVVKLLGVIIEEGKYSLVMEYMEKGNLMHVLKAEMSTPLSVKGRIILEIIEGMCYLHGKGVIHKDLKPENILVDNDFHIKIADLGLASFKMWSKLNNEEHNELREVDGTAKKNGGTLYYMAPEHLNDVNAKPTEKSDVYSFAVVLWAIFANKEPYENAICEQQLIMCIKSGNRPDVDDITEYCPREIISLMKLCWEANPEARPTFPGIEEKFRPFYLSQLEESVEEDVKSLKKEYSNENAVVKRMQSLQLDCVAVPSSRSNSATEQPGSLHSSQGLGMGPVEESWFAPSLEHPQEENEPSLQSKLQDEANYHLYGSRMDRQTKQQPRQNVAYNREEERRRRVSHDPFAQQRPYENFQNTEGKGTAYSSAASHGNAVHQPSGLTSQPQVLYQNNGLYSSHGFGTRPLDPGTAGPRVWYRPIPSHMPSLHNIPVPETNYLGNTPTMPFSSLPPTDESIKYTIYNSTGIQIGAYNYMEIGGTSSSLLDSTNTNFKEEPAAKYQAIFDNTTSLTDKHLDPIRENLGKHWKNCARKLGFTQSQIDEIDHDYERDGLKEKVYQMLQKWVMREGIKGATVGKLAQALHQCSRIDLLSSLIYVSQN
Experimental: (§1) Human colon carcinoma cell HT-29 (KCLB 30038), BV2 mouse microglial cell (cell was a kind gift from Dr. Nak-Yun Sung, Senior researcher at Korea Prime Pharmacy CO., LTD.) and human microglial cell HMC3 (ATCC® CRL-3304™). HT-29 cell was grown in Roswell Park Memorial Institute (RPMI) 1640, BV2 cell was grown in Dulbecco's Modified Eagle's Medium (DMEM) and HMC3 cell was grown in Minimum Essential Media Eagle (MEM) supplemented with 10% fetal bovine serum and 1% mixture of penicillin and streptomycin (Gibco). Cells were maintained at 37° C. in a humidified 5% CO2 atmosphere.
To measure the activity of RIPK1 inhibitor in necroptotic cells, HT-29 cells were treated by control DMSO, human TNFα (Peprotech, Rocky Hill, USA), SM-164 (Biovision, California, USA) and a pan-caspase inhibitor Z-VAD-FMK (Invivogen, San Diego, USA). Cells were pretreated with Z-VAD-FMK 20 μM. After 30 min, human TNFα 10 ng/ml, SM-164 100 nM and RIPK1 Inhibitor (0.0001, 0.001, 0.01, 0.02, 0.05, 0.1, 1, 10 uM) were treated for 24 h. Cell viability was measured by Cell Counting Kit 8 (CCK-8) (Dong-in, Seoul, Korea).

RIPK1 [2] = molecular target: T1, RIPK1; assay: Immunoblotting of TNFα induced phospho-RIPK1 (ser 166) levels; format: cell-based; conditions: HMC3 cells; Z-VAD-FMK, human TNFα 20 ng/ml, SM-164 100 nM; 7 h, serum free media; read-out: Cell-base RIPK1 activity: phspho-RIPK1 (Ser166)
Experimental: as §1
Biological activity of the compounds of RIPK1 inhibitor was determined by measuring their ability to inhibitor TNFα induced phospho-RIPK1 (ser 166) levels, phospho-RIPK3 levels, phospho-MLKL levels in HMC3 cells. Cells were pretreated with Z-VAD-FMK […]. After 30 min, human TNFα 20 ng/ml, SM-164 100 nM and RIPK1 inhibitor (0.1, 1, 10 nM) were treated for 7 h under serum free media. Cells were lysed with cold lysis buffer containing 25 mM HEPES pH 7.6, […] NaCl, 1% NP40, 1% sodium deoxycholate, 0.1% SDS, and protease inhibitor mixture (Bimake, Houston, USA) using sonicators. The cells were centrifuged at 15,000 rpm, 4° C. for 5 min. After protein concentration of the lysates (supernatants) was quantified using BCA assay (Thermo Fisher Scientific, Waltham, USA), lysates were mixed with LDS sample buffer and heating at […] for 10 min. (Invitrogen, California, USA). […] The membranes are placed in an image analyzer (Imagequant, LAS 500, GE Healthcare), connected to a computer which allows the image generation (software Image reader LAS 500).

Row | Structure (SMILES) | IC50 (RIPK1 [1]) | IC50 (RIPK1 [2])
1 | CN1C(=O)[C@@H](NC(=O)n2cc(Cc3cccc(F)c3)cn2)COc2ccc(O[C@H]3CC[C@@H](O)CC3)cc21 [Example 34, 4-(3-fluorobenzyl)-N—((S)-7-(((1s,4R)-4-hydroxycyclohexyl)oxy)-5-methyl-4-oxo-2,3,4,5-tetrahydrobenzo[b][1,4]oxazepin-3-yl)-1H-pyrazole-1-carboxamide] | < 0.01 µM | < 0.01 µM
2 | Cc1nnc(COc2ccc3c(c2)N(C)C(=O)[C@@H](NC(=O)n2cc(Cc4cccc(F)c4)cn2)CO3)o1 [Example 64, (S)-4-(3-fluorobenzyl)-N-(5-methyl-7-((5-methyl-1,3,4-oxadiazol-2-yl)methoxy)-4-oxo-2,3,4,5-tetrahydrobenzo[b][1,4]oxazepin-3-yl)-1H-pyrazole-1-carboxamide] | 0.01 to 0.05 µM | 0.01 to 0.05 µM
3 | CN1C(=O)[C@@H](NC(=O)n2cc(Cc3cccc(F)c3)cn2)COc2ccc(C(=O)NOCC(C)(C)O)cc21 [Example 13, (S)-3-(4-(3-fluorobenzyl)-1H-pyrazole-1-carboxamido)-N-(2-hydroxy-2-methylpropoxy)-5-methyl-4-oxo-2,3,4,5-tetrahydrobenzo[b][1,4]oxazepine-7-carboxamide] | 0.01 to 0.05 µM | 
4 | CN1C(=O)[C@@H](NC(=O)n2cc(Cc3cccc(F)c3)cn2)COc2ccc(OCc3ccc(F)cc3)cc21 [Example 57, (S)-4-(3-fluorobenzyl)-N-(7-((4-fluorobenzyl)oxy)-5-methyl-4-oxo-2,3,4,5-tetrahydrobenzo[b][1,4]oxazepin-3-yl)-1H-pyrazole-1-carboxamide] | < 0.01 µM | < 0.01 µM
5 | CN1C(=O)[C@@H](NC(=O)n2cc(Cc3cccc(F)c3)cn2)COc2ccc(OCc3ccc(F)cn3)cc21 [Example 58, (S)-4-(3-fluorobenzyl)-N-(7-((5-fluoropyridin-2-yl)methoxy)-5-methyl-4-oxo-2,3,4,5-tetrahydrobenzo[b][1,4]oxazepin-3-yl)-1H-pyrazole-1-carboxamide] | < 0.01 µM | < 0.01 µM
6 | CN1C(=O)[C@@H](NC(=O)n2cc(Cc3cccc(F)c3)cn2)COc2ccc(C(=O)N3CCOCC3)cc21 [Example 9, (S)-4-(3-fluorobenzyl)-N-(5-methyl-7-(morpholine-4-carbonyl)-4-oxo-2,3,4,5-tetrahydrobenzo[b][1,4]oxazepin-3-yl)-1H-pyrazole-1-carboxamide] | 0.01 to 0.05 µM | 
7 | CN1C(=O)[C@@H](NC(=O)n2cc(Cc3cccc(F)c3)cn2)COc2ccc(OCc3cnc(Cl)nc3)cc21 [Example 62, (S)—N-(7-((2-chloropyrimidin-5-yl)methoxy)-5-methyl-4-oxo-2,3,4,5-tetrahydrobenzo[b][1,4]oxazepin-3-yl)-4-(3-fluorobenzyl)-1H-pyrazole-1-carboxamide] | < 0.01 µM | < 0.01 µM
8 | CN1C(=O)[C@@H](NC(=O)n2cc(Cc3cccc(F)c3)cn2)COc2ccc(OCc3nccn3C)cc21 [Example 63, (S)-4-(3-fluorobenzyl)-N-(5-methyl-7-((1-methyl-1H-imidazol-2-yl)methoxy)-4-oxo-2,3,4,5-tetrahydrobenzo[b][1,4]oxazepin-3-yl)-1H-pyrazole-1-carboxamide] | < 0.01 µM | < 0.01 µM
9 | CN1C(=O)[C@@H](NC(=O)n2cc(Cc3cccc(F)c3)cn2)COc2ccc(OCC#CC(C)(C)O)cc21 [Example 22, (S)-4-(3-fluorobenzyl)-N-(7-((4-hydroxy-4-methylpent-2-yn-1-yl)oxy)-5-methyl-4-oxo-2,3,4,5-tetrahydrobenzo[b][1,4]oxazepin-3-yl)-1H-pyrazole-1-carboxamide] | < 0.01 µM | < 0.01 µM
10 | CN1C(=O)[C@@H](NC(=O)n2cc(Cc3cccc(F)c3)cn2)COc2ccc(OCCCC3(O)CCC3)cc21 [Example 28, (S)-4-(3-fluorobenzyl)-N-(7-(3-(1-hydroxycyclobutyl)propoxy)-5-methyl-4-oxo-2,3,4,5-tetrahydrobenzo[b][1,4]oxazepin-3-yl)-1H-pyrazole-1-carboxamide] | < 0.01 µM | < 0.01 µM
11 | CN1C(=O)[C@@H](NC(=O)n2cc(Cc3cccc(F)c3)cn2)COc2ccc(OCC(=O)N3CCC(F)(F)C3)cc21 [Example 45, (S)—N-(7-(2-(3,3-difluoropyrrolidin-1-yl)-2-oxoethoxy)-5-methyl-4-oxo-2,3,4,5-tetrahydrobenzo[b][1,4]oxazepin-3-yl)-4-(3-fluorobenzyl)-1H-pyrazole-1-carboxamide] | < 0.01 µM | < 0.01 µM
12 | CN1CCN(C(=O)c2ccc3c(c2)N(C)C(=O)[C@@H](NC(=O)n2cc(Cc4cccc(F)c4)cn2)CO3)CC1 [Example 7, (S)-4-(3-fluorobenzyl)-N-(5-methyl-7-(4-methylpiperazine-1-carbonyl)-4-oxo-2,3,4,5-tetrahydrobenzo[b][1,4]oxazepin-3-yl)-1H-pyrazole-1-carboxamide] | 0.01 to 0.05 µM | 
13 | CN1C(=O)[C@@H](NC(=O)n2cc(Cc3cccc(F)c3)cn2)COc2ccc(OCC(=O)NCC(C)(C)O)cc21 [Example 52, (S)-4-(3-fluorobenzyl)-N-(7-(2-((2-hydroxy-2-methylpropyl)amino)-2-oxoethoxy)-5-methyl-4-oxo-2,3,4,5-tetrahydrobenzo[b][1,4]oxazepin-3-yl)-1H-pyrazole-1-carboxamide] | < 0.01 µM | 
14 | CN1C(=O)[C@@H](NC(=O)n2cc(Cc3cccc(F)c3)cn2)COc2ccc(C(=O)N3CCC(O)C3)cc21 (stereo partly drawn) [Example 10, 4-(3-fluorobenzyl)-N-((3S)-7-(3-hydroxypyrrolidine-1-carbonyl)-5-methyl-4-oxo-2,3,4,5-tetrahydrobenzo[b][1,4]oxazepin-3-yl)-1H-pyrazole-1-carboxamide] | < 0.01 µM | 
15 | CN1CC[C@@H](Oc2ccc3c(c2)N(C)C(=O)[C@@H](NC(=O)n2cc(Cc4cccc(F)c4)cn2)CO3)C1 [Example 33, 4-(3-fluorobenzyl)-N—((S)-5-methyl-7-(((R)-1-methylpyrrolidin-3-yl)oxy)-4-oxo-2,3,4,5-tetrahydrobenzo[b][1,4]oxazepin-3-yl)-1H-pyrazole-1-carboxamide] | 0.01 to 0.05 µM | 
16 | CN1C(=O)[C@@H](NC(=O)n2cc(Cc3cccc(F)c3)cn2)COc2ccc(O[C@@H]3CCOC3)cc21 [Example 32, 4-(3-fluorobenzyl)-N—((S)-5-methyl-4-oxo-7-(((R)-tetrahydrofuran-3-yl)oxy)-2,3,4,5-tetrahydrobenzo[b][1,4]oxazepin-3-yl)-1H-pyrazole-1-carboxamide] | < 0.01 µM | 
17 | CN(C)CCOc1ccc2c(c1)N(C)C(=O)[C@@H](NC(=O)n1cc(Cc3cccc(F)c3)cn1)CO2 [Example 17, (S)—N-(7-(2-(dimethylamino)ethoxy)-5-methyl-4-oxo-2,3,4,5-tetrahydrobenzo[b][1,4]oxazepin-3-yl)-4-(3-fluorobenzyl)-1H-pyrazole-1-carboxamide] | 0.01 to 0.05 µM | 
18 | CN1C(=O)[C@@H](NC(=O)n2cc(Cc3cccc(F)c3)cn2)COc2ccc(C(=O)N3CCNCC3)cc21 [Example 8, (S)-4-(3-fluorobenzyl)-N-(5-methyl-4-oxo-7-(piperazine-1-carbonyl)-2,3,4,5-tetrahydrobenzo[b][1,4]oxazepin-3-yl)-1H-pyrazole-1-carboxamide] | > 0.05 µM | 
